The values that follow come from patent US11666562B2, “Ilaprazole for inhibiting the release of enveloped viruses from cells” (Northwestern University, priority 2020, dated 2023).

What is called pEC50 is −log10 of the EC50, conventionally taken in molar units.

One data set has as its system 293T cells. Nature of the data set: 293T cell toxicity. In kind it is cell-based. The settings on record: at drug concentrations that inhibited release of HIV-1. The procedure: Drug potency and cell toxicity. EC50 calculations were determined by using AAT Bioquest's EC50 calculator. Cell toxicity at different concentrations of drugs as indicated was determine using the Cell Proliferation Reagent WST-1 (Roche Diagnostics) or cellular 96® Aqueous One Reagent viability reagent according to manufacturer's instructions. For 293T cells, the concentration of DMSO was 0.2% or less and assays were carried out with DMEM with 10% serum. Cell toxicity experiments were repeated twice.

The next data set deals with HIV-1. Nature of the data set: Release of HIV-1 from transfected 293T cells, p24 in media. The format is cell-based. The settings on record: 293T cells transfected with pR9-HIV-1Ba-L, read-out: EC50, inhibition of HIV-1 release. The procedure: Effect of Ilaprazole on release of HIV-1 in vitro. To establish the broad-spectrum potential of ilaprazole, we tested whether ilaprazole would inhibit the release of HIV-1 from 293T cells. To this end, cells were transfected with pR9-HIV-1Ba-L plasmid and release of virus into the media fraction was detected by monitoring the capsid (CA) protein (p24) via enzyme linked immunosorbent assay analysis. The drug was tested at concentrations between 0 and 40 μM and the effect of the drug on release of virus assessed (Table 4, shown in FIG. 8, column 2). Ilaprazole was effective at inhibiting the release of HIV-1 from cells with a calculated EC50 of 1 μM or less as described in Materials and Methods.
HIV-1 transfection of 293T cells. 293T cells (American Type Culture Collection) were grown in a 24-well Clear Flat Bottom TC-treated Multiwell Cell Culture Plate using Dulbecco's modified Eagle's medium (Cellgro) containing fetal bovine serum (10%), 100 U/ml penicillin, 100 μg/ml streptomycin, and 292 μg/ml 1-glutamine (Cellgro). […] Virus released from cells was quantified by media-associated p24 determined using fluorescently tagged CA targeting antibody (PerkinElmer) and equivalent amounts of p24 as standards.
Drug potency and cell toxicity. EC50 calculations were determined by using AAT Bioquest's EC50 calculator. […]

The next data set concerns DHPH. Nature of the data set: FTS assay against unrelated protein DHPH. In kind it is binding, human. The source says: (§1) FIG. 1. Thermal shift data of Tsg101 by lead compound Tenatoprazole (N16). […] (B) Thermal shift data of three human proteins, DHPH, ENO1, and MEK4 not related to Tsg101 by lead compound tenatoprazole. […] (C) The addition of DTT abolishes the Tm shift in the FTS assay, consistent with prazole compounds forming a disulfide bond to Tsg101. Rabe: Rabeprazole, Ila: Ilaprazole, Tenato: tenatoprazole, Panto: pantoprazole, ref: reference.
(§2) This specific binding is consistent with a previous NMR structure in which tenatoprazole forms a covalent disulfide bond to Cys73 in the UEV domain of the protein (5). This disulfide bond formation can be prevented by including the reducing agent DTT in the assay (FIG. 1C). The addition of DTT abolished the Tsg101-UEV Tm shift caused by the prazoles. […]
(§3) Fluorescence thermal shift (FTS) screening to identify small molecule binding to Tsg101-UEV. […] Discovery of small molecule binding to target protein utilizes the observation that ligand binding affects protein thermal stability, and therefore can be detected through a shift in the protein's thermal denaturation (melting) temperature (Tm). […] A fluorescence dye Sypro-Orange (Invitrogen) was used for assay detection. The dye is excited at 473 nm and has a fluorescence emission at 610 nm. […] Fluorescence was detected on a real-time PCR machine CFX384 (Bio-Rad Laboratories).

The next data set addresses T1, MEK4 (Homo sapiens, UniProt P45985).
T1 sequence (P45985 1-399): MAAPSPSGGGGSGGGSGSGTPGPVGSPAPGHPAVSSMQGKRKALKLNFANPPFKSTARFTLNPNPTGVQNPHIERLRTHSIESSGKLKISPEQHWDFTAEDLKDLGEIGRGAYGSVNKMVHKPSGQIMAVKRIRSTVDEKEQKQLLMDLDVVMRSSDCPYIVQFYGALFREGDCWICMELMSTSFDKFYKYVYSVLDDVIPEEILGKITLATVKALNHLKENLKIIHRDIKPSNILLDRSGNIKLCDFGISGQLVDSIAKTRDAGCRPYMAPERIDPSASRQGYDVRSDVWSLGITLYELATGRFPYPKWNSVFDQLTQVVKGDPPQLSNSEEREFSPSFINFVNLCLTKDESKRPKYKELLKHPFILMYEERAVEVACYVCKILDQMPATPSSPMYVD
Kind of data set: FTS assay against unrelated protein MEK4. In kind it is binding.
From the text: as §1, §2, §3

pEC50: −log10 of the molar value. “Also recorded” adds a separate entry of the source. Like-named read-outs stand apart in the source and are kept apart here. Some results are limits rather than exact numbers.

On to `COc1ccnc(C[S+]([O-])c2nc3ccc(-n4cccc4)cc3[nH]2)c1C` (centres unmarked) [Ilaprazole, 2-[(4-methoxy-3-methylpyridin-2-yl)methylsulfinyl]-6-pyrrol-1-yl-1H-benzimidazole], for which, in the data set on 293T cells, the “Toxicity to 293T cells” value is given as “did not detect toxicity”. The pEC50 in the data set on HIV-1 is ≥ 6.00; in the data set on HIV-1 (Human immunodeficiency virus 1, HEK-293T) it was 5.92 to 6.10.

`COc1ccc2[nH]c([S+]([O-])Cc3ncc(C)c(OC)c3C)nc2n1` (centres unmarked) [Tenatoprazole]: the “Effect on thermal stability (Tm shift) of DHPH” value with DHPH is recorded as “negligible; also recorded: did not observe a Tm shift”. Besides, the “Effect on thermal stability (Tm shift) of MEK4” value on MEK4 was “negligible; also recorded: did not observe a Tm shift”.
